Test results taken from publication PMC8428568, “Discovery of re-purposed drugs that slow SARS-CoV-2 replication in human cells” (PLoS Pathogens, 2021).
Where a name gives a salt, the structure may show the parent alone. Read-outs that look alike come from different tables or passages of the source.

Experiments:
[1] = system: recombinant NLuc; type: biochemical
[2] = system: SARS-CoV-2-ΔOrf7a-NLuc virus; assay: microbe, parasite or virus in culture; type: cell-based; details: for activity at 10 µM: Severe acute respiratory syndrome coronavirus 2, Vero, 72 h, read-out: Mean relative luminescence (n=4)
[3] = system: SARS-CoV-2-ΔOrf7a-NLuc virus; assay: microbe, parasite or virus in culture; type: cell-based
[4] = system: HUH7 cells
[5] = system: Vero cells
[6] = recombinant NLuc activity relative to DMSO
[7] = recombinant NLuc, first read column
[8] = recombinant NLuc, fourth read column
[9] = recombinant NLuc, third read column
[10] = […], 1 = untreated, 0 = total inhibition
[11] = Vero screen, […], relative luminescence
[12] = HUH7 screen, […], relative luminescence
[13] = Vero cells, 10 μM, 1 = DMSO-treated infected cells

Structure (SMILES)	Relative Recombinant NLUC [1, 6]	Reads Counts per second (read 1) [1, 7]	Reads Counts per second (read 4) [1, 8]	Reads Counts per second (read 3) [1, 9]	% activity in Vero 100PFU screen [2]	activity at 10 µM [2, 10]	Mean relative luminescence (n=4) [2, 11]	Mean relative luminescence (n=4) [3, 12]	PrestoBlue relative viability ([4]; HUH7 screen)	PrestoBlue relative viability [5, 13]	PrestoBlue relative viability ([5]; Vero screen)	Mean relative luminescence (n=4) [2, 10]	Reads Counts per second (read 1) [1]	Reads Counts per second (read 3) [1]	Reads Counts per second (read 4) [1]	Relative Recombinant NLUC [1]	activity at 10 µM [2]	Mean relative luminescence (n=4) [3]	PrestoBlue relative viability ([4]; human)	PrestoBlue relative viability ([5]; African green monkey)
COc1cc2nccc(Oc3ccc(NC(=O)C4(C(=O)Nc5ccc(F)cc5)CC4)cc3)c2cc1OC [Cabozantinib malate (XL184), Cabozantinib malate]	0.8679	333265 Counts per second	328687 Counts per second	329153 Counts per second	12%	10.3%	0.1026	0.03412	0.8011	0.5119	0.5119									
CN(C)CC/C=C1/c2ccccc2Sc2ccc(Cl)cc21.Cl [Chlorprothixene (hydrochloride)]	0.9574	359664 Counts per second	361186 Counts per second	361391 Counts per second	4.28%		0.0137	0.03176	0.7623	0.8299	0.8299	0.0137								
Cc1cc(C2CCCCC2)n(O)c(=O)c1.NCCO [Ciclopirox ethanolamine]	0.961	358391 Counts per second	361119 Counts per second	365653 Counts per second	7%		0.05436	0.04601	0.5023	0.5173	0.5173	0.05436								
COCCOC(=O)C1=C(C)NC(C)=C(C(=O)OC/C=C/c2ccccc2)C1c1cccc([N+](=O)[O-])c1 (stereo not shown) [Cilnidipine]	0.07521	28828 Counts per second	27971 Counts per second	28106 Counts per second	0.696%	0.039%	0.0003902	0.00182	0.797	0.8017	0.8017									
COc1cccc2c1C(=O)c1c(O)c3c(c(O)c1C2=O)C[C@@](O)(C(C)=O)C[C@@H]3O[C@H]1C[C@H](N)[C@H](O)[C@H](C)O1 [Daunorubicin HCl]	0.8615	319222 Counts per second	328432 Counts per second	327409 Counts per second	5%	2.1%	0.02101	0.006058	0.5186	0.6965	0.6965									
CCc1cnn2c(NCc3ccc[n+]([O-])c3)cc(N3CCCC[C@H]3CCO)nc12 [Dinaciclib (SCH727965), Dinaciclib]	0.9134	345056 Counts per second	346073 Counts per second	342151 Counts per second	5%	3.29%	0.03292	0.06294	0.5934	0.664	0.664									
CNCC[C@H](Oc1cccc2ccccc12)c1cccs1 [Duloxetine HCl]					12%								297459 Counts per second	293652 Counts per second	301826 Counts per second	0.7894	9.8%	0.02845	0.5048	0.9914
CC(C)n1c(/C=C/C(O)CC(O)CC(=O)O)c(-c2ccc(F)cc2)c2ccccc21 (stereo not shown) [Fluvastatin Sodium]	0.8994	344916 Counts per second	335899 Counts per second	339204 Counts per second	6%	5.01%	0.05005	0.05448	1.3017	0.5553	0.5553									
COC(=O)C1=C(C)NC(C)=C(C(=O)OC(C)C)C1c1cccc2nonc12 (stereo not shown) [Isradipine (Dynacirc), Isradipine]	0.04959	19176 Counts per second	18431 Counts per second	18561 Counts per second	6%	3.92%	0.03922	0.001355	0.6762	0.6155	0.6155									
O=C(/C=C\n1cnc(-c2cc(C(F)(F)F)cc(C(F)(F)F)c2)n1)NNc1cnccn1 [KPT-330]	1.022	378225 Counts per second	381493 Counts per second	389989 Counts per second	3.73%	0.545%	0.005454	0.05859	0.7102	0.581	0.581									
Cl.Cl.Cl.O[C@@H](COc1cccc2ncccc12)CN1CCN([C@@H]2c3ccccc3[C@@H]3[C@H](c4ccccc42)C3(F)F)CC1 [LY335979 (Zosuquidar 3HCL), Zosuquidar 3HCL]	0.9362	352212 Counts per second	351420 Counts per second	356783 Counts per second	3%		0.008621	0.08231	0.6203	0.5866	0.5866	0.008621								
CCOC(=O)C1=C(C)NC(C)=C(C(=O)OCC)C1c1ccccc1/C=C/C(=O)OC(C)(C)C [Lacidipine]	0.1601	61246 Counts per second	59492 Counts per second	60310 Counts per second	1.49%	0.0439%	0.0004392	0.02662	0.9247	0.86	0.86									
CC[C@H](C)C(=O)O[C@H]1C[C@@H](C)C=C2C=C[C@H](C)[C@H](CC[C@@H]3C[C@@H](O)CC(=O)O3)[C@H]21 [Lovastatin]	0.9319	351803 Counts per second	349914 Counts per second	353101 Counts per second	9%	8.28%	0.0828	0.08758	1.075	0.5479	0.5479									
CCOC(=O)C1=C(C)NC(C)=C(C(=O)OC)C1c1cccc([N+](=O)[O-])c1 (stereo not shown) [Nitrendipine]	0.06915	26271 Counts per second	26141 Counts per second	26096 Counts per second	8.56%	7.21%	0.07211	0.0007292	0.6545	0.8649	0.8649									
OCCOc1ccc(/C(=C(/CCCl)c2ccccc2)c2ccccc2)cc1 [Ospemifene]					4%								356755 Counts per second	358779 Counts per second	352991 Counts per second	0.9407	1.57%	0.1449	1.203	0.6863
O=C(c1ccc(OCCN2CCCCC2)cc1)c1c(-c2ccc(O)cc2)sc2cc(O)ccc12 [Raloxifene HCl]	0.8812	334037 Counts per second	335545 Counts per second	331016 Counts per second	6%	2.63%	0.02628	0.03646	0.5413	0.579	0.579									
